Experimental data: patent US20090054353A1, “MANNOSYL-1 PHOSPHATES, PREPARATION METHOD AND THERAPEUTIC USE, IN PARTICULAR AGAINST THE CDG-IA SYNDROME” (priority 2006, published 2009)

Columns and labels:
[1] = test system: lymphoblasts of CDG-Ia diseases; assay: inhibition of incorporation of 2-[3H]mannose into cellular glycoconjugates ("radioactivity"); type: cell-based, human; details: dose of 500 μM; for Radioactivity (inhibition, by competition, of the binding of 2-[3H]mannose-1 phosphate): percentage relative to the controls, lymphoblasts of CDG-Ia, 5 trials per product; for effectiveness in inhibiting the incorporation of radioactive mannose into glycoproteins (in words): lymphoblasts, comparison between products
Description: (§1) The compounds of formula I, II and III were tested as prodrugs (i.e. as intracellular sources of Man-1 P), on the one hand, in order to evaluate their toxicity and, on the other hand, in order to assess their capacity to inhibit the incorporation of 2-[^3H]mannose into cellular glycoconjugates. Indeed, while they can generate Man-1 P in cells, it will be in competition with 2-[^3H]mannose-1 phosphate for entering the pathway for biosynthesis of glycoproteins (see Eklund, E. A., et al. cited above).
(§2) The products were tested (5 trials per product and per dose) on lymphoblasts of CDG-Ia diseases and their activities (“radioactivity”, i.e. inhibition, by competition, of the binding of 2-[^3H]mannose-1 phosphate; and cell “toxicity”) were assessed as a percentage relative to the controls (10 trials).

[2] = test system: lymphoblasts of CDG-Ia diseases; assay: cell toxicity on lymphoblasts; type: cell-based; details: dose of 500 μM; for cell mortality / toxicity (in words): lymphoblasts, comparison with CP1, CP3 and CP6; for Toxicity (cell toxicity): percentage relative to the controls, lymphoblasts of CDG-Ia, 5 trials per product
Description: as §1, §2

Compound: CC(=O)OC[C@H]1O[C@H](OP(=O)(OCOC(=O)C(C)(C)C)OCOC(=O)C(C)(C)C)[C@@H](OC(C)=O)[C@@H](OC(C)=O)[C@@H]1OC(C)=O [CP1, di(pivaloyloxymethyl) (2,3,4,6-tetra-O-acetyl)-α-D-mannopyranosyl-1] phosphate]
- Radioactivity (inhibition, by competition, of the binding of 2-[3H]mannose-1 phosphate) [1]: 92%
- cell mortality / toxicity (in words) [2]: at least a doubling of cell mortality
- Toxicity (cell toxicity) [2]: 210%

Compound: CC(C)(C)C(=O)OCOP(=O)(OCOC(=O)C(C)(C)C)O[C@H]1O[C@H](COC(=O)C(C)(C)C)[C@@H](OC(=O)C(C)(C)C)[C@H](OC(=O)C(C)(C)C)[C@@H]1OC(=O)C(C)(C)C [CP3, di(pivaloyloxymethyl) (2,3,4,6-tetra-O-pivaloyl-α-D-manno-pyranosyl-1) phosphate]
- Radioactivity (inhibition, by competition, of the binding of 2-[3H]mannose-1 phosphate) [1]: 90%
- cell mortality / toxicity (in words) [2]: at least a doubling of cell mortality
- Toxicity (cell toxicity) [2]: 205%

Compound: CCOC(=O)OC[C@H]1O[C@H](OP(=O)(OCOC(C)=O)OCOC(C)=O)[C@@H](OC(=O)OCC)[C@@H](OC(=O)OCC)[C@@H]1OC(=O)OCC [CP6, di(acetyloxymethyl) (2,3,4,6-tetra-O-ethyloxycarbonyl)-α-D-manno-pyranosyl-1) phosphate]
- Radioactivity (inhibition, by competition, of the binding of 2-[3H]mannose-1 phosphate) [1]: 91%
- cell mortality / toxicity (in words) [2]: at least a doubling of cell mortality
- Toxicity (cell toxicity) [2]: 201%

Compound: Benzyl di(2,3,4,6-tetra-O-isobutyryl-α-D-mannopyranosyl-1) phosphate [Ex. 12]
- effectiveness in inhibiting the incorporation of radioactive mannose into glycoproteins (in words) [1]: less effective than CP1, CP3 and CP6
- Radioactivity (inhibition, by competition, of the binding of 2-[3H]mannose-1 phosphate) [1]: 25%
- cell mortality / toxicity (in words) [2]: a lot less toxic
- Toxicity (cell toxicity) [2]: 112%

Compound: Di(2,3,4,6-tetra-O-isobutyryl-α-D-mannopyranosyl-1) hydrogen phosphate [Ex. 4]
- effectiveness in inhibiting the incorporation of radioactive mannose into glycoproteins (in words) [1]: therapeutically less effective than Ex. 5, Ex. 11, Ex. 12 and Ex. 13
- Radioactivity (inhibition, by competition, of the binding of 2-[3H]mannose-1 phosphate) [1]: 100%
- cell mortality / toxicity (in words) [2]: less toxic
- Toxicity (cell toxicity) [2]: 100%
